According to patent publication US6465509B2, “Pyrones as inhibitors of cyclooxygenase-2” (Merck Frosst Canada & Co., priority 2000, dated 2002):

Experiments:
COX-2 [1] = target: T1, COX-2 (Homo sapiens, UniProt P35354); assay: Human whole blood assay, COX-2 (LPS-induced PGE2 production); format: cell-based; design: endogenous in cells; host or cells: fresh heparinized human whole blood from volunteers, incubated with LPS; conditions: LPS-induced PGE2, 24 hours at 37° C., read-out: COX-2 (IC50 μM) HWB
T1 sequence (P35354 18-604): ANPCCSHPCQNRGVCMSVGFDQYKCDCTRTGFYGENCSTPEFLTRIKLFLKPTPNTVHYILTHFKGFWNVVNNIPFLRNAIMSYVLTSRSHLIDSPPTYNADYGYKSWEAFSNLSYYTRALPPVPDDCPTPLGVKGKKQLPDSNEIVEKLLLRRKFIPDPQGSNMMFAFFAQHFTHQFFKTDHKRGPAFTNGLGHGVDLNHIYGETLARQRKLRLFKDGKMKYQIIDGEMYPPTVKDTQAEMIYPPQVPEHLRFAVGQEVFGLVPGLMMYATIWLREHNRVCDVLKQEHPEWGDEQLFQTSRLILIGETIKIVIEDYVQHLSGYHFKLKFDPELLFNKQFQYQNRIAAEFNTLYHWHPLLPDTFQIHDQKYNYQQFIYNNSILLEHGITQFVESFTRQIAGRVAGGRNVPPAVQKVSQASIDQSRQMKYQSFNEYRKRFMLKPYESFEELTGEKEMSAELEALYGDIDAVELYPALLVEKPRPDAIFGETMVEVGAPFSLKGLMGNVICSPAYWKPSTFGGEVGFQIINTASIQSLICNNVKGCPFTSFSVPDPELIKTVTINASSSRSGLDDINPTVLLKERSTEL
Description: Human whole blood provides a protein and cell-rich milieu appropriate for the study of biochemical efficacy of anti-inflammatory compounds such as selective COX-2 inhibitors. […] This is consistent with the observation that COX-2 inhibitors have no effect on PGE2 production in normal blood. These inhibitors are active only after incubation of human whole blood with LPS, which induces COX-2. This assay can be used to evaluate the inhibitory effect of selective COX-2 inhibitors on PGE2 production. As well, platelets in whole blood contain a large amount of the COX-1 enzyme. Immediately following blood clotting, platelets are activated through a thrombin-mediated mechanism. This reaction results in the production of thromboxane B2 (TxB2) via activation of COX-1. Thus, the effect of test compounds on TxB2 levels following blood clotting can be examined and used as an index for COX-1 activity. Therefore, the degree of selectivity by the test compound can be determined by measuring the levels of PGE2 after LPS induction (COX-2) and TxB2 following blood clotting (COX-1) in the same assay.
A. COX-2 (LPS-induced PGE2 production)
Fresh blood is collected in heparinized tubes by venipuncture from both male and female volunteers. The subjects have no apparent inflammatory conditions and have not taken any NSAIDs for at least 7 days prior to blood collection. Plasma is immediately obtained from a 2 mL blood aliquot to use as blank (basal levels of PGE2). The remaining blood is incubated with LPS (100 μg/ml final concentration, Sigma Chem, #L-2630 from E. coli; diluted in 0.1% BSA (Phosphate buffered saline) for 5 minutes at room temperature. Five hundred μL aliquots of blood are incubated with either 2 μL of vehicle (DMSO) or 2 μL of a test compound at final concentrations varying from 10 nM to 30 μM for 24 hours at 37° C. At the end of the incubation, the blood is centrifuged at 12,000×g for 5 minutes to obtain plasma. A 100 μL aliquot of plasma is mixed with 400 μL of methanol for protein precipitation. The supernatant is obtained and is assayed for PGE2 using a radioimmunoassay kit (Amersham, RPA#530) after conversion of PGE2 to its methyl oximate derivative according to the manufacturer's procedure.

COX-2 [2] = target: T1, COX-2; assay: Whole cell assay for COX-2 using CHO[hCOX-2] transfected cell line; format: cell-based; design: expressed in transfected cells; host or cells: CHO cells stably transfected with pCDNAIII (CHO[hCOX-2]); conditions: CHO[hCOX-2] cells, PGE2 synthesis, 10 μM AA
Description: Whole cell assays for COX-2 and COX-1 using CHO transfected cell lines
Chinese hamster ovary (CHO) cell lines which have been stably transfected with an eukaryotic expression vector pCDNAIII containing either the human COX-1 or COX-2 cDNA's are used for the assay. These cell lines are referred to as CHO[hCOX-1] and CHO[hCOX-2], respectively. For cyclooxygenase assays, CHO[hCOX-1] cells from suspension cultures and CHO[hCOX-2] cells prepared by trypsinization of adherent cultures are harvested by centrifugation (300×g, 10 min) and washed once in HBSS containing 15 mM HEPES, pH 7.4, and resuspended in HBSS, 15 mM HEPES, pH 7.4, at a cell concentration of 1.5×10^6 cells/ml. Drugs to be tested are dissolved in DMSO to 66.7-fold the highest test drug concentration. Compounds are typically tested at 8 concentrations in duplicate using serial 3-fold serial dilutions in DMSO of the highest drug concentration. Cells (0.3×10^6 cells in 200 μl) are preincubated with 3 μl of the test drug or DMSO vehicle for 15 min at 37° C. Working solutions of peroxide-free AA (5.5 μM and 110 μM AA for the CHO[hCOX-1] and CHO[COX-2] assays, respectively) are prepared by a 10-fold dilution of a concentrated AA solution in ethanol into HBSS containing 15 mM HEPES, pH 7.4. Cells are then challenged in the presence or absence of drug with the AA/HBSS solution to yield a final concentration of 0.5 μM AA in the CHO[hCOX-1] assay and a final concentration of 10 μM AA in the CHO[hCOX-2] assay. The reaction is terminated by the addition of 10 μl 1N HCl followed by neutralization with 20 μl of 0.5N NaOH. The samples are centrifuged at 300×g at 4° C. for 10 min, and an aliquot of the clarified supernatant is appropriately diluted for the determination of PGE2 levels using an enzyme-linked immunoassay for PGE2 (Correlate PGE2 enzyme immunoassay kit, Assay Designs, Inc.). Cyclooxygenase activity in the absence of test compounds is determined as the difference in PGE2 levels of cells challenged with arachidonic acid versus the PGE2 levels in cells mock-challenged with ethanol vehicle. Inhibition of PGE2 synthesis by test compounds is calculated as a percentage of the activity in the presence of drug versus the activity in the positive control samples.
Compounds of the present invention are inhibitors of cyclooxygenase-2 and are thereby useful in the treatment of cyclooxygenase-2 mediated diseases as enumerated above. The activities of the compounds against cyclooxygenase may be seen in the representative results shown below. In the assay, inhibition is determined by measuring the amount of prostaglandin E2 (PGE2) synthesized in the presence of arachidonic acid, cyclooxygenase-1 or cyclooxygenase-2 and a putative inhibitor. The IC50 values represent the concentration of putative inhibitor required to return PGE2 synthesis to 50% of that obtained as compared to the uninhibited control.

IC50 (COX-2 [1]): 10.5 µM | IC50 (COX-2 [2]): 0.37 µM
SMILES: CS(=O)(=O)c1ccc(-c2cc(CC(F)(F)F)oc(=O)c2-c2ccccc2)cc1 [Example 13, 4-(4-Methylsulfonyl)phenyl-3-phenyl-6-(2,2,2-trifluoroethyl)-pyran-2-one]
